Measured values taken from patent US20240092741A1, “COMPOSITION FOR PREVENTION OR TREATMENT OF NEUROFIBROMATOSIS TYPE 2 SYNDROME” (PRG S&TECH INC., priority 2021, published 2024).

How the values were obtained:
[1] = test system: NF2-transfected mouse schwannoma cells; assay: MTT and immunoblotting in NF2-transfected mouse schwannoma cells; type: cell-based; settings: NF2-transfected mouse schwannoma cells (FIGS. 9C, 9D)
Method: In other words, cells were seeded at a density of 2×10^5 cells/well in 12-well plates and cultured overnight before transfection. The vector (1.5 μg) was mixed with 1.5 μl of Jetpei reagent dissolved in 150 mM NaCl solution. The mixture was reacted at room temperature for 15 minutes, and then added to the cells. After 3 hours, the serum-free medium 15 was replaced with medium supplemented with 10% FBS. Cells were harvested and lysed using RIPA buffer [50 mM Tris-Cl, pH 7.5, 150 mM NaCl, 1% NP-40, 0.1% SDS, and 10% sodium deoxycholate] to examine cellular signaling. Protein concentrations in samples were measured using Bio-Rad (Hercules, CA, USA) protein assay kits and BSA standards. […] The blots were detected using an HRP-conjugated secondary antibody using ECL kit (Intron, Seoul, Korea). […] Plates were then cultured at 37° C. for 4 hours, the MTT solution was removed, the precipitated substances were dissolved using a solution (DMSO:ethanol=1:1), and an amount of formazan dye produced was quantified by measuring the absorbance at 560 nm using an ELISA microplate reader (Thermo Fisher Scientific, MA, USA).

[2] = test system: normal fibroblasts; assay: MTT cell viability assay in normal fibroblasts; type: cell-based, human; settings: indicated concentrations, 7 days (FIG. 5A)
Method: To measure cell viability, MTT (3-(4,5-dimethylthiazol-2-yl)-2,5-diphenyltetrazolium bromide) assay was used. In other words, the cells were seeded in 96-well plates and treated with the indicated chemicals for a predetermined time. After removing the medium, 200 μl of MTT solution (0.5 mg/ml) dissolved in PBS was added to each well. Plates were then cultured at 37° C. for 4 hours, the MTT solution was removed, the precipitated substances were dissolved using a solution (DMSO:ethanol=1:1), and an amount of formazan dye produced was quantified by measuring the absorbance at 560 nm using an ELISA microplate reader (Thermo Fisher Scientific, MA, USA).

[3] = test system: HEI-193 cells; assay: Cell proliferation (cell counting) in HEI-193 cells; type: cell-based, human; settings: 10 μM, indicated time (FIG. 12B)
Method: Cell growth curves were analyzed by seeding 2×10^4 cells/well into a 6-well plate. After the indicated day, the cells were trypsinized and dissociated into single cells. A minimum of 10,000 cells were counted using an Attune NxT flow cytometer (Thermo Fisher Scientific, Inc., Rockford, IL, USA).

[4] = test system: HEI-193 cells; assay: Morphological change / differentiation of HEI-193 cells; type: cell-based, human; settings: 7 days (FIGS. 12C, 13B)
[5] = test system: Erk; assay: Erk activation by Western blotting in HEI-193 cells; type: cell-based, human; settings: 24 h (FIG. 6A)
Method: Cells were harvested and lysed using RIPA buffer [50 mM Tris-Cl, pH 7.5, 150 mM NaCl, 1% NP-40, 0.1% SDS, and 10% sodium deoxycholate] to examine cellular signaling. Protein concentrations in samples were measured using Bio-Rad (Hercules, CA, USA) protein assay kits and BSA standards. The samples (20 μg protein per lane) were separated by sodium dodecyl sulfate-polyacrylamide gel electrophoresis (SDS-PAGE), transferred to Immobilon-P^SQ transfer membranes (Millipore Corp., MA, USA), which were then cultured with 3% skim milk-containing TBS-T buffer (Tris-HCl-based buffer containing 20 mM Tris pH 7.6, 150 mM NaCl, and 0.05% Tween 20) for 1 hour at room temperature and then reacted with primary antibody in TBS-T overnight at 4° C. The membranes were then washed and reacted with secondary horseradish peroxidase (HRP)-conjugated antibodies [goat anti-mouse, goat anti-rabbit, and mouse anti-goat antibodies (Pierce, Thermo Fisher Scientific, Inc., Rockford, IL, USA)] in TBS-T at room temperature for 2 hours. The blots were detected using an HRP-conjugated secondary antibody using ECL kit (Intron, Seoul, Korea).

CCN(CC)CCOc1ccc(-c2nnn(Cc3ccc(OC)cc3)c2N)cc1 [PRG-N-01, 4-(4-(2-(diethylamino)ethoxy)phenyl)-1-(4-methoxybenzyl)-1H-1,2,3-triazol-5-amino]
chemical effect (antiproliferating effect, RKIP induction, p-Erk suppression) [1]: no chemical effect
toxicity in normal fibroblasts (MTT) [2]: without causing toxicity
cell growth (cell count) [3]: completely inhibited cell growth
morphological changes [4]: induced morphological changes
Erk activation [5]: inhibited Erk activation
